Values after ≈ are worked out from the molar mass of the structure shown.
Legend:
C. albicans = experiment: chemotherapeutic activity, m.i.c. against C. albicans; assay type: cell-based; conditions: Candida albicans
Staph. aureus = experiment: chemotherapeutic activity, m.i.c. against Staph. aureus; assay type: cell-based; conditions: Staphylococcus aureus
Strep. faecalis = experiment: chemotherapeutic activity, m.i.c. against Strep. faecalis; assay type: cell-based; conditions: Enterococcus faecalis
E. coli = experiment: chemotherapeutic activity, m.i.c. against E. coli; assay type: cell-based; conditions: Escherichia coli
broiler chicks = experiment: Chick Growth Study; assay type: in vivo, chicken; conditions: 8 reps (8/rep)
Procedure: One day old broiler chicks, selected for weight, health and sex, are housed in an environmentally controlled room with temperature at 80° F. and humidity at 40%. Chicks are fed ad libitum. Water is offered ad libitum. A rye or corn basal ration is fed during the acclimation period (days 1 and 2), then, mixed with the compound under test or control conditions on days 3-17. Either 8 pens (64 chicks) or 16 pens (128 chicks) are used for each test or control group.
B. Representative results using diethyl 1-(2-pyridinylthio)-1,2-hydrazinedicarboxylate, N-oxide: […]

[1] = test system: Ileal inoculum (filtrate) of Yorkshire barrow; experiment: in vitro incubation with inoculum from cannulated swine (ileal); assay type: cell-based; conditions: 5 hours at 37°
Procedure: A Yorkshire barrow is surgically prepared either with an ileal cannula, which is placed 15 cm. from the ileo-ceco-colic junction, or a cecal cannula, which placed midway between the apex and origin of the cecum. The animal is fed 4 times daily to restrict intake to 4.5% of body weight in a 30 kg animal or 2.5% of body weight in a 100 kg animal. The swine grower ration is:
Sampling of the material, via the cannula, begins 150-180 minutes following the first morning feeding and continues any time from 30-120 minutes thereafter, depending on the quantity of material needed. The sample is maintained in crushed ice, no cooler than 5°, and is gassed continuously with carbon dioxide. The collected material is filtered. The filtrate is the inoculum used for incubations of the test and control samples. […] Four blank control tubes, along with the test compound tubes, are incubated 5 hours at 37° with agitation. Four more killed tubes are included which are not incubated.
The tubes are each treated with 0.60 ml of a 25% solution of metaphosphoric acid, then, stored at -4° until analysis. Samples are thawed and centrifuged for 25 minutes at 20,000 r.p.m. The supernatent liquid is decanted, sampled for gas chromatography and automatic analysis. The results are fed into a computer for finishing to give figures in which the blank control value is 100%. Virginiamycin is used as a positive control.
*VFA refers to the total of volatile fatty acids, namely acetate,
propionate, isobutyrate, butyrate, isovalerate and valerate. LYS is
lysine, GLU is glucose and LAC is Llactic acid.

[2] = (3) positive control, 166.67 ppm

## CCOC(=O)NN(Sc1cccc[n+]1[O-])C(=O)OCC [diethyl 1-(2-pyridinylthio)-1,2-hydrazinedicarboxylate, N-oxide]
C. albicans
  MIC: 63 µg/mL (≈ 209 µM)
Staph. aureus
  MIC: 2 µg/mL (≈ 6.64 µM)
Strep. faecalis
  MIC: 3 µg/mL (≈ 9.96 µM)
E. coli
  MIC: 63 µg/mL (≈ 209 µM)
Broiler chicks; trial (1)
  Weight, 17 day: 102.0 % of Control
Broiler chicks; trial (1), 20 ppm in feed
  Dead: 1
  Feed/Gain, days 3-10: 102.2 % of Control
  Feed/Gain, days 3-17: 101.7 % of Control
  Feed/Gain, days 10-17: 101.7 % of Control
  Weight, 10 day: 96.4 % of Control
  Weight, 17 day: 103.2 % of Control
Broiler chicks; trial (1), 40 ppm in feed
  Dead: 4
  Feed/Gain, days 3-10: 103.3 % of Control
  Feed/Gain, days 3-17: 98.4 % of Control
  Feed/Gain, days 10-17: 95.0 % of Control
  Weight, 10 day: 90.9 % of Control
Broiler chicks; trial (2), 20 ppm in feed
  Dead: 4
  Feed/Gain, days 3-10: 96.8 % of Control
  Feed/Gain, days 3-17: 96.4 % of Control
  Feed/Gain, days 10-17: 96.5 % of Control
  Weight, 10 day: 103.5 % of Control
  Weight, 17 day: 103.4 % of Control
Broiler chicks; trial (3), 50 ppm in feed
  Dead: 0
  Feed/Gain, days 3-10: 97.1 % of Control
  Feed/Gain, days 3-17: 93.6 % of Control
  Feed/Gain, days 10-17: 85.2 % of Control
  Weight, 10 day: 93.2 % of Control
  Weight, 17 day: 102.8 % of Control
[1]; (1), 1.67 ppm
  GLU (glucose): 166 % of control values
  LAC (L-lactic acid): 91 % of control values
  LYS (lysine): 109 % of control values
  VFA (total volatile fatty acids): 91 % of control values
[1]; (1), 16.67 ppm
  GLU (glucose): 237 % of control values
  LAC (L-lactic acid): 81 % of control values
  LYS (lysine): 152 % of control values
  VFA (total volatile fatty acids): 72 % of control values
[1]; (1), 166.7 ppm
  GLU (glucose): 379 % of control values
  LAC (L-lactic acid): 54 % of control values
  LYS (lysine): 194 % of control values
  VFA (total volatile fatty acids): 47 % of control values
[1]; (2), 166.67 ppm
  GLU (glucose): 845 % of control values
  LAC (L-lactic acid): 139 % of control values
  LYS (lysine): 110 % of control values
  VFA (total volatile fatty acids): 55 % of control values

## virginiamycin [reference compound]
[1]; (3) positive control, 1.67 ppm
  GLU (glucose): 393 % of control values
  LAC (L-lactic acid): 0 % of control values
  LYS (lysine): 99 % of control values
  VFA (total volatile fatty acids): 255 % of control values
[1]; (3) positive control, 16.7 ppm
  GLU (glucose): 464 % of control values
  LAC (L-lactic acid): 12 % of control values
  LYS (lysine): 141 % of control values
  VFA (total volatile fatty acids): 114 % of control values
[1]; [2]
  GLU (glucose): 496 % of control values
  LAC (L-lactic acid): 14 % of control values
  LYS (lysine): 144 % of control values
  VFA (total volatile fatty acids): 86 % of control values

Reference: patent US4463009A, “Dialkyl 1-(2-pyridinylthio)-1,2-hydrazinedicarboxylate, N-oxides and their use as animal growth stimulants” (priority 1983, dated 1984)
